The results in this text go back to ChEMBL document CHEMBL3046114, “Synthesis and phytotoxic activity of novel acylthiourea and 2H-1,2,4-thiadiazolo[2,3-]pyrimidine derivatives” (2012).

Each structure is given as a SMILES string.

Format in all cases: functional
Common to all, as to conditions: read-out: GI

Assay [1] relates to Chenopodium ficifolium. Kind of assay: Phytotoxicity against Chenopodium ficifolium germinated seed assessed as growth inhibition at 10 mg/L after 72 hr by culture dish method.
For assay [2], the system named is Chenopodium ficifolium. Kind of assay: Phytotoxicity against Chenopodium ficifolium germinated seed assessed as growth inhibition at 100 mg/L after 72 hr by culture dish method.
Assay [3] deals with Echinochloa crus-galli. Kind of assay: Phytotoxicity against Echinochloa crus-galli (barnyard grass) germinated seed assessed as growth inhibition at 100 mg/L after 72 hr by culture dish method.
Assay [4] deals with Brassica napus. Kind of assay: Phytotoxicity against Brassica napus (oilseed rape) germinated seed assessed as growth inhibition at 100 mg/L after 72 hr by culture dish method.
Assay [5] relates to Digitaria ciliaris. Kind of assay: Phytotoxicity against Digitaria ciliaris germinated seed assessed as growth inhibition at 100 mg/L after 72 hr by culture dish method.
The subject of assay [6] is Echinochloa crus-galli. Put plainly: Phytotoxicity against Echinochloa crus-galli (barnyard grass) germinated seed assessed as growth inhibition at 10 mg/L after 72 hr by culture dish method.
In assay [7] the test system is Brassica napus. Kind of assay: Phytotoxicity against Brassica napus (oilseed rape) germinated seed assessed as growth inhibition at 10 mg/L after 72 hr by culture dish method.
In assay [8] the test system is Digitaria ciliaris. Put plainly: Phytotoxicity against Digitaria ciliaris germinated seed assessed as growth inhibition at 10 mg/L after 72 hr by culture dish method.

Take `CSc1cc(C)nc(NC(=S)NC(=O)c2c(-c3ccc(Cl)cc3Cl)noc2C)n1`: the inhibition of growth at 10 µg/mL came to 32.8% in the assay on Chenopodium ficifolium [1], 27.4% in the assay on Echinochloa crus-galli [6], 42.4% in the assay on Brassica napus [7] and 26.7% in the assay with Digitaria ciliaris [8]. Besides, the inhibition of growth at 100 µg/mL was 86.1% in the assay on Chenopodium ficifolium [2], 47.1% in the assay with Echinochloa crus-galli [3], 73.6% in the assay with Brassica napus [4] and 45.5% in the assay with Digitaria ciliaris [5].
For the compound `COc1cc(Cl)nc(NC(=S)NC(=O)c2c(-c3ccc(Cl)cc3Cl)noc2C)n1`, the inhibition of growth at 10 µg/mL in the assay with Chenopodium ficifolium [1] stood at 21.9%; in the assay with Echinochloa crus-galli [6], 18.5%; with Brassica napus [7], 30.7%; in the assay on Digitaria ciliaris [8], 14.6%. The inhibition of growth at 100 µg/mL with Chenopodium ficifolium [2] came to 53.2%; with Echinochloa crus-galli [3], 56.3%; in the assay with Brassica napus [4], 61%; with Digitaria ciliaris [5] it was 62.2%.
As to `COc1cc(OC)nc(NC(=S)NC(=O)c2c(-c3ccc(Cl)cc3Cl)noc2C)n1`, the inhibition of growth at 10 µg/mL with Chenopodium ficifolium [1] is 30.7%; in the assay with Echinochloa crus-galli [6] it was 21.8%; in the assay on Brassica napus [7], 35.2%; in the assay on Digitaria ciliaris [8] it was 32%. In addition, the inhibition of growth at 100 µg/mL with Chenopodium ficifolium [2] was determined as 78.6%; in the assay with Echinochloa crus-galli [3], 60.9%; in the assay with Brassica napus [4], 70.8%; in the assay with Digitaria ciliaris [5] it was 65.9%.
Regarding `COc1cc(SC)nc(NC(=S)NC(=O)c2c(-c3ccc(Cl)cc3Cl)noc2C)n1`, the inhibition of growth at 10 µg/mL in the assay on Chenopodium ficifolium [1] is -8.31%; in the assay with Echinochloa crus-galli [6], 19.3%; with Brassica napus [7], 18.7%; with Digitaria ciliaris [8] it was 34.8%. For the same compound, the inhibition of growth at 100 µg/mL in the assay with Chenopodium ficifolium [2] was 60.3%; in the assay with Echinochloa crus-galli [3] it was 40.9%; in the assay with Brassica napus [4], 69.2%; in the assay with Digitaria ciliaris [5], 55.6%.
Consider `Cc1cc(C)n2s/c(=N\C(=O)c3c(-c4ccc(Cl)cc4Cl)noc3C)nc2n1`, for which the inhibition of growth at 10 µg/mL in the assay on Chenopodium ficifolium [1] amounted to 26.7%; in the assay with Echinochloa crus-galli [6], 25.2%; with Brassica napus [7], 46.3%; with Digitaria ciliaris [8] it was 15.2%. Besides, the inhibition of growth at 100 µg/mL in the assay on Chenopodium ficifolium [2] was 76.9%; with Echinochloa crus-galli [3], 76%; with Brassica napus [4], 76.8%; in the assay with Digitaria ciliaris [5], 84.9%.
For `Cc1cc(O)n2s/c(=N\C(=O)c3c(-c4ccc(Cl)cc4Cl)noc3C)nc2n1`, the inhibition of growth at 10 µg/mL in the assay on Chenopodium ficifolium [1] was 32.9%; in the assay on Echinochloa crus-galli [6] it was 30.5%; in the assay with Brassica napus [7] it was 38.5%; with Digitaria ciliaris [8], 30.1%. For the same compound, the inhibition of growth at 100 µg/mL with Chenopodium ficifolium [2] worked out at 59.3%; in the assay on Echinochloa crus-galli [3] it was 65.8%; with Brassica napus [4], 79.2%; with Digitaria ciliaris [5], 72.1%.
On to `Cc1onc(-c2ccc(Cl)cc2Cl)c1C(=O)/N=c1/nc2nc(Cl)cc(C)n2s1`, for which the inhibition of growth at 10 µg/mL in the assay with Chenopodium ficifolium [1] was 18.6%; with Echinochloa crus-galli [6], 25.8%; with Brassica napus [7] it was 20.1%; with Digitaria ciliaris [8], 32.8%. Also, the inhibition of growth at 100 µg/mL in the assay on Chenopodium ficifolium [2] stood at 73.6%; with Echinochloa crus-galli [3], 55.6%; with Brassica napus [4] it was 70.2%; with Digitaria ciliaris [5], 68.1%.
Turning to `COc1cc(C)nc2n/c(=N/C(=O)c3c(-c4ccc(Cl)cc4Cl)noc3C)sn12`, the inhibition of growth at 10 µg/mL in the assay on Chenopodium ficifolium [1] is 45.7%; in the assay with Echinochloa crus-galli [6] it was 30.9%; in the assay with Brassica napus [7], 26.4%; in the assay on Digitaria ciliaris [8] it was 50.3%. Further, the inhibition of growth at 100 µg/mL is 80.4% with Chenopodium ficifolium [2], 80.5% in the assay with Echinochloa crus-galli [3], 80.6% in the assay with Brassica napus [4] and 80.6% in the assay with Digitaria ciliaris [5].
Consider `CSc1cc(C)nc2n/c(=N/C(=O)c3c(-c4ccc(Cl)cc4Cl)noc3C)sn12`, for which the inhibition of growth at 10 µg/mL stood at 21.9% in the assay on Chenopodium ficifolium [1], 37.5% in the assay with Echinochloa crus-galli [6], 32.8% in the assay on Brassica napus [7] and 26.8% in the assay with Digitaria ciliaris [8]. Besides, the inhibition of growth at 100 µg/mL with Chenopodium ficifolium [2] is 75.2%; in the assay with Echinochloa crus-galli [3], 75.4%; in the assay with Brassica napus [4], 62.8%; in the assay with Digitaria ciliaris [5] it was 70.6%.
On to `COc1cc(Cl)nc2n/c(=N/C(=O)c3c(-c4ccc(Cl)cc4Cl)noc3C)sn12`, for which the inhibition of growth at 10 µg/mL was determined as 19.3% with Chenopodium ficifolium [1], 10.8% in the assay on Echinochloa crus-galli [6], 28.6% in the assay on Brassica napus [7] and 16.5% in the assay on Digitaria ciliaris [8]. For the same compound, the inhibition of growth at 100 µg/mL with Chenopodium ficifolium [2] was 65.9%; in the assay on Echinochloa crus-galli [3], 40.8%; in the assay with Brassica napus [4], 70.8%; in the assay on Digitaria ciliaris [5], 72.8%.
Turning to `COc1cc(OC)n2s/c(=N\C(=O)c3c(-c4ccc(Cl)cc4Cl)noc3C)nc2n1`, the inhibition of growth at 10 µg/mL in the assay on Chenopodium ficifolium [1] was found to be 28.9%; in the assay on Echinochloa crus-galli [6], 43.2%; with Brassica napus [7] it was 49.3%; in the assay on Digitaria ciliaris [8] it was 53.8%. In addition, the inhibition of growth at 100 µg/mL in the assay with Chenopodium ficifolium [2] was 82.7%; with Echinochloa crus-galli [3], 85.6%; with Brassica napus [4], 85.6%; in the assay with Digitaria ciliaris [5], 85.3%.
Turning to `COc1cc(SC)nc2n/c(=N/C(=O)c3c(-c4ccc(Cl)cc4Cl)noc3C)sn12`, the inhibition of growth at 10 µg/mL turned out to be 23.8% in the assay on Chenopodium ficifolium [1], 21.4% with Echinochloa crus-galli [6], 27.4% in the assay with Brassica napus [7] and 19.8% in the assay with Digitaria ciliaris [8]. For the same compound, the inhibition of growth at 100 µg/mL with Chenopodium ficifolium [2] worked out at 68.3%; in the assay on Echinochloa crus-galli [3], 55.6%; in the assay on Brassica napus [4], 75.8%; in the assay on Digitaria ciliaris [5], 79.6%.
For `Cc1cc(C)nc(NC(=S)NC(=O)c2c(-c3ccc(Cl)cc3Cl)noc2C)n1`, the inhibition of growth at 10 µg/mL in the assay with Chenopodium ficifolium [1] stood at 16.9%; in the assay with Echinochloa crus-galli [6], 18.5%; in the assay with Brassica napus [7], 16.1%; with Digitaria ciliaris [8], 26.5%. The inhibition of growth at 100 µg/mL with Chenopodium ficifolium [2] was 65.4%; in the assay with Echinochloa crus-galli [3], 64.7%; in the assay with Brassica napus [4] it was 68%; in the assay with Digitaria ciliaris [5], 61.4%.
As for `Cc1cc(O)nc(NC(=S)NC(=O)c2c(-c3ccc(Cl)cc3Cl)noc2C)n1`, the inhibition of growth at 10 µg/mL in the assay on Chenopodium ficifolium [1] is -5.86%; in the assay with Echinochloa crus-galli [6] it was -9.78%; in the assay with Brassica napus [7], 6.7%; in the assay with Digitaria ciliaris [8], -6.24%. The inhibition of growth at 100 µg/mL is 46.7% in the assay with Chenopodium ficifolium [2], 46.8% in the assay with Echinochloa crus-galli [3], 52.3% with Brassica napus [4] and 49.3% in the assay on Digitaria ciliaris [5].
In the case of `Cc1cc(Cl)nc(NC(=S)NC(=O)c2c(-c3ccc(Cl)cc3Cl)noc2C)n1`, the inhibition of growth at 10 µg/mL with Chenopodium ficifolium [1] is 28.9%; in the assay on Echinochloa crus-galli [6], -6.84%; in the assay with Brassica napus [7], 8.36%; in the assay on Digitaria ciliaris [8] it was 10.2%. The inhibition of growth at 100 µg/mL in the assay with Chenopodium ficifolium [2] came to 48.3%; in the assay with Echinochloa crus-galli [3] it was 48.7%; in the assay on Brassica napus [4], 50.8%; in the assay with Digitaria ciliaris [5], 44.2%.
As for `COc1cc(C)nc(NC(=S)NC(=O)c2c(-c3ccc(Cl)cc3Cl)noc2C)n1`, the inhibition of growth at 10 µg/mL with Chenopodium ficifolium [1] was determined as 15.3%; in the assay on Echinochloa crus-galli [6], 12.3%; in the assay on Brassica napus [7], 15.7%; in the assay with Digitaria ciliaris [8], 30.2%. Besides, the inhibition of growth at 100 µg/mL in the assay on Chenopodium ficifolium [2] came to 59.8%; in the assay on Echinochloa crus-galli [3] it was 61.8%; in the assay with Brassica napus [4], 69.3%; in the assay with Digitaria ciliaris [5] it was 60.2%.
As to `CCOC(=O)[C@@H](C)Oc1ccc(Oc2nc3ccc(Cl)cc3o2)cc1` [FENOXAPROP-P-ETHYL], the inhibition of growth at 10 µg/mL in the assay with Chenopodium ficifolium [1] worked out at 16.8%; in the assay on Echinochloa crus-galli [6] it was 58.4%; in the assay on Brassica napus [7] it was 16.4%; with Digitaria ciliaris [8], 35.7%. Besides, the inhibition of growth at 100 µg/mL was determined as 48.7% in the assay with Chenopodium ficifolium [2], 71.8% in the assay with Echinochloa crus-galli [3], 42.2% with Brassica napus [4] and 85.6% with Digitaria ciliaris [5].
